Test results: BigSolDB 2.1

Cn1cnc2c1c(=O)[nH]c(=O)n2C
Details	solubility (mole fraction)
in acetone, 288.13 K	1.47e-05
in acetone, 297.99 K	2.23e-05
in acetone, 308.08 K	2.99e-05
in acetone, 318.07 K	4.57e-05
in acetone, 328.17 K	6.77e-05
in ethanol, 288.15 K	1.38e-05
in ethanol, 298.2 K	2.26e-05
in ethanol, 308.19 K	3.85e-05
in ethanol, 318.16 K	6.31e-05
in ethanol, 328.16 K	0.000106
in ethyl acetate, 288.13 K	1.04e-05
in ethyl acetate, 297.99 K	1.59e-05
in ethyl acetate, 308.08 K	2.28e-05
in ethyl acetate, 318.07 K	3.33e-05
in ethyl acetate, 328.17 K	4.94e-05
in methanol, 288.07 K	2.82e-05
in methanol, 298.1 K	4.34e-05
in methanol, 308.93 K	7e-05
in methanol, 318.62 K	0.00011
in methanol, 328.15 K	0.000163
in n-propanol, 288.15 K	1.18e-05
in n-propanol, 298.2 K	2.06e-05
in n-propanol, 308.19 K	3.71e-05
in n-propanol, 318.16 K	6.37e-05
in n-propanol, 328.16 K	0.000109
in water, 288.07 K	3.09e-05
in water, 298.1 K	4.73e-05
in water, 308.93 K	6.93e-05
in water, 318.62 K	0.0001
in water, 328.15 K	0.000145

Cn1c(=O)c2[nH]cnc2n(C)c1=O
Details	solubility (mole fraction)
in acetone, 288.02 K	0.000667
in acetone, 298.15 K	0.00093
in acetone, 308.15 K	0.00124
in acetone, 318.15 K	0.00147
in acetone, 328.1 K	0.0018
in ethanol, 288.01 K	0.0008
in ethanol, 297.95 K	0.00116
in ethanol, 308.01 K	0.00173
in ethanol, 318.11 K	0.00254
in ethanol, 328.09 K	0.00319
in ethyl acetate, 288.02 K	0.000502
in ethyl acetate, 298.15 K	0.000673
in ethyl acetate, 308.15 K	0.000901
in ethyl acetate, 318.15 K	0.0011
in ethyl acetate, 328.1 K	0.00141
in methanol, 288.06 K	0.00077
in methanol, 298.16 K	0.00137
in methanol, 308.16 K	0.00217
in methanol, 318.13 K	0.00298
in methanol, 328.19 K	0.00394
in n-propanol, 288.01 K	0.000912
in n-propanol, 297.95 K	0.00136
in n-propanol, 308.01 K	0.00204
in n-propanol, 318.11 K	0.00313
in n-propanol, 328.09 K	0.00423
in water, 288.06 K	0.000325
in water, 298.16 K	0.00063
in water, 308.16 K	0.000991
in water, 318.13 K	0.00141
in water, 328.19 K	0.00216
